Values quoted from earlier work as cited in patent US20060172021A1, “Herbal compositions for the prevention or treatment of symptoms of stress and infection” (priority 2005, published 2006).

Experiments:
female mice = conditions: mouse, in vivo
[1] = test system: human progesterone production

Compound	Inhibition of prostaglandin synthesis (prostaglandin synthesis)	further results
CCCCC[C@H](O)CC(=O)CCc1ccc(O)c(OC)c1 [gingerol]	potent inhibitors	–
CCCCCC(=O)CC(=O)CCc1ccc(O)c(OC)c1 [gingerdione]	potent inhibitors	–
C=C1CC[C@@H]2[C@](C)(CO)[C@H](O)CC[C@@]2(C)[C@@H]1/C=C/C1=CCOC1=O [dehydroandrographolide]	–	Dose required to affect pregnancy (female mice): 250 mg/kg. of body weight. This amount of pure
CCCCCC(=O)/C=C(O)/C=C\c1ccc(O)c(OC)c1 [dehydrogingerdione]	potent inhibitors	–
andrographolide sodium succinate	–	Detrimental effects on other normal human tissue [1]: intended for. There were no detrimental effects; Inhibition of human progesterone production ([1]; cultured human placental tissue): (derived from AP) was effective in inhibiting
